These results are taken from publication PMC12197642 (Viruses, 2025).

Data set [1] addresses FMDV 2C helicase (Foot-and-mouth disease virus serotype O, UniProt P03305). In kind it is biochemical.
The nature of data set [2]: in vitro. The settings on record: hamster.
For data set [3], the system named is FMDV serotype O strain O/China. Nature of the data set: microbe, parasite or virus in culture. It is filed as cell-based, foot-and-mouth disease virus (FMDV).
Data set [4] concerns FMDV serotype O strain O/China. It is filed as cell-based, foot-and-mouth disease virus (FMDV).
The test system of data set [5] is FMDV serotype O strain O/China. In kind it is cell-based, foot-and-mouth disease virus (FMDV). This is another data set of the same source.
Data set [6] has as its system picornaviral 2C. The settings on record: cited from earlier work.
The mark [7] stands for this setting: Foot-and-mouth disease virus, BHK-21, read-out: reduction of viral plaque formation (inhibitory efficacy).

Sequence of FMDV 2C helicase (P03305 1108-1425 limits assumed): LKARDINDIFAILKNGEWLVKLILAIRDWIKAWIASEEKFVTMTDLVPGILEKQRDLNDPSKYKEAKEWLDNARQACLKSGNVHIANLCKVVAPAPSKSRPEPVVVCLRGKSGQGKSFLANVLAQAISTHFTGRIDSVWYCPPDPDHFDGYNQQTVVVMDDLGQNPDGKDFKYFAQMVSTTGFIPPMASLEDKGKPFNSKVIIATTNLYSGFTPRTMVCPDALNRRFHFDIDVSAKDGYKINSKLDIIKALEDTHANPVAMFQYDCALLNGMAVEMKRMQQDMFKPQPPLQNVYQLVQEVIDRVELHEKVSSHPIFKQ

With `O=C1C=CC2(C=C1)OC(=O)c1ccccc1O2` [Compound C6, Spiro (4H-[1,3]benzodioxine-2,4′-[2,5]cyclohexadiene)-1′,4-dione], the inhibition type result in data set [1] is recorded as “noncompetitive inhibition”. In data set [2], this compound yielded a CC50 of 3 µM.
As to `COc1cccc2c1NC(=O)C(Cl)(Cl)C2=O` [Compound C5, 3,3-dichloro-8-methoxy-2,4(1H,3H)-quinolinedione], in data set [1], the inhibition type result is “noncompetitive inhibition”. This compound also came in with a CC50 in data set [2] of 127 µM.
For the compound `Oc1ccccn1` [Compound C3, pyridin-2-ol], in data set [1], the inhibition type result is “competitive inhibition”. Besides, in data set [2], the viability at 500 µM was greater than 50% and the CC50 is 852 µM.
Turning to `Sc1cnn[nH]1` [Compound C2, 1H-1,2,3-triazole-5-thiolate], the inhibition type entry in data set [1] is “competitive inhibition”. In data set [2], this compound yielded a viability at 500 µM greater than 50% and a CC50 of 1330 µM.
Turning to `Cc1cccc[n+]1[O-]` [Compound C1, 2-methylpyridine 1-oxide], in data set [3], the “concentration achieving effective FMDV suppression” value was 400 µM and the “reduction of viral plaque formation” value was determined as 90.2%. For the same compound, in data set [3] (setting [7]), the inhibition at 200 µM is 97.3% and the inhibition at 400 µM turned out to be 99.8%. In data set [1], the inhibition type entry is “mixed inhibition”. In addition, the viability at 500 µM in data set [2] was greater than 50%. The “antiviral activity by indirect immunofluorescence” value in data set [4] is given as “superior viral replication suppression”.
`COc1ccc2c(c1)cc1n2CCN2CCCN=C12` [Compound C4, 11-methoxy-3,4,6,7-tetrahydro-2H-pyrimido[2′,1′:3,4]pyrazino[1,2-a]indole]: in data set [3], the “concentration achieving effective FMDV suppression” value was found to be 160 µM and the “inhibition rate (plaque assay)” value is on record as 99.7%. The inhibition type entry in data set [1] was “mixed inhibition”. Also, the CC50 in data set [2] came out at 284 µM. The “antiviral activity by indirect immunofluorescence” value in data set [4] was “superior viral replication suppression”. For the same compound, the “suppression of FMDV RNA levels” value in data set [5] is listed as “significantly outperformed 2-MPO”.
In the case of `Cl.N=C(N)N` [Guanidine hydrochloride], the “effect on helicase and ATPase activities” value in data set [6] was “suppresses helicase and ATPase activities”.

By viability is commonly meant a read-out of living cells in per cent, often relative to untreated cells. A higher viability goes with better survival.
